According to ChEMBL document CHEMBL3244288, “Antimalarials. 11. Synthesis of 3- and 5-aminoquinolines as potential antimalarials” (J Med Chem, 1979):
Activity calls are given as the source filed them. The calls are words filed in the database; no cut-off is given here.

Tests used:
Format in all cases: functional, organism-based
Plasmodium berghei = test: Antimalarial activity against Plasmodium berghei infected in mouse assessed as increase in mean survival time at 640 mg/kg, sc; design: dose 640 mg/kg
Leishmania donovani = test: Antileishmanial activity against Leishmania donovani infected in golden hamster administered for 8 days
Plasmodium cynomolgi [1] = test: Antimalarial activity against sporozoite form of Plasmodium cynomolgi infected in juvenile rhesus monkey assessed as radical curative effect at 10 mg/kg, administered 6 doses; design: dose 10 mg/kg
Plasmodium cynomolgi [2] = test: Antimalarial activity against sporozoite form of Plasmodium cynomolgi infected in juvenile rhesus monkey assessed as radical curative effect

Row | SMILES | Activity (Plasmodium berghei) | Activity (Leishmania donovani) | Activity (Plasmodium cynomolgi [1]) | Activity (Plasmodium cynomolgi [2])
1 | COc1ccc2ncc(NC(C)CCCN)c(C)c2c1 (configuration not stated) | inactive | inactive | – | –
2 | COc1ccc(NC(C)CCCN)c2cccnc12 (configuration not stated) | inactive | inactive | Active | –
3 | CCN(CC)CCNc1ccc(OC)c2ncccc12 | inactive | inactive | – | inactive
4 | CCN(CC)CCCC(C)Nc1ccc(OC)c2ncccc12 (configuration not stated) | inactive | inactive | – | inactive
5 | COc1cc2ncc(NC(C)CCCN)c(C)c2cc1OC (configuration not stated) | inactive | inactive | – | –
6 | COc1cc(NC(C)CCCN)c2ncccc2c1 (configuration not stated) | – | – | – | Active
7 | COc1cc(NC(C)CCCN)c2nccc(C)c2c1 (configuration not stated) | – | – | – | Active
8 | COc1cc2cc(NC(C)CCCN)cnc2cc1OC (configuration not stated) | inactive | inactive | – | –
